Tests used:
[1] = test system: six B. braunii SMT-like genes (TMT-1, -2, -3, SMT-1, -2, -3); test: In vitro methyltransferase assay with sterol acceptor substrates; type: biochemical, Botryococcus braunii race B; conditions: 2 mM acceptor substrate, yeast microsomes, data not shown
Description: (§1) The various B. braunii SMT-like genes or empty vector control were expressed in TN-7 yeast and grown in 100 ml selection media for 3 days, after which microsomes were prepared according to the methods of Pompon et al. (27). Enzyme assays contained 50 mM HEPES, pH 7.5, either 0.01% (TMT-3) or 0.1% (all other samples) DHPC, 2 mM acceptor substrate (botryococcene, squalene, C32-botryococcene, C32-squalene, cycloartenol, zymosterol, or lanosterol), 50 μM 3H-SAM (˜150 dpm/pmole), 2 μl microsomes, in 100 μl total volume. Assays were set up by first combining everything except 3H-SAM and microsomes and treating with a sonicating water bath (Branson 2510) for ˜1 min. until the solution became cloudy due to micelle formation, after which 3H-SAM and microsomes were added and the reaction incubated at 37° C. for 5 min. Reactions were stopped by adding an equal volume of 10% (w/v) KOH in methanol, followed by extraction of hydrocarbon products with 400 μl n-hexane. An aliquot of the organic phase was spotted on silica TLC plates and developed with n-hexane:MTBE (25:1). Triterpenes were visualized with iodine vapor and the corresponding zones were scraped and subject to scintillation analysis.
None of the six enzymes was able to methylate C32 botryococcene or C32 squalene, possible intermediates to the tetramethylated forms (see below).

TMT-1 [2] = molecular target: T1, TMT-1 (Botryococcus braunii, UniProt H2E7T5); test: In vivo co-expression in TN7 yeast with triterpene synthase, GC-MS of organic extracts; type: cell-based, Botryococcus braunii race B; set-up: led to the identification of six full-length ORFs; made in house; host or cells: Saccharomyces cerevisiae TN7 (TN-7); conditions: TN7 yeast co-expressing TMT-1 and BSS
T1 sequence (H2E7T5 1-378): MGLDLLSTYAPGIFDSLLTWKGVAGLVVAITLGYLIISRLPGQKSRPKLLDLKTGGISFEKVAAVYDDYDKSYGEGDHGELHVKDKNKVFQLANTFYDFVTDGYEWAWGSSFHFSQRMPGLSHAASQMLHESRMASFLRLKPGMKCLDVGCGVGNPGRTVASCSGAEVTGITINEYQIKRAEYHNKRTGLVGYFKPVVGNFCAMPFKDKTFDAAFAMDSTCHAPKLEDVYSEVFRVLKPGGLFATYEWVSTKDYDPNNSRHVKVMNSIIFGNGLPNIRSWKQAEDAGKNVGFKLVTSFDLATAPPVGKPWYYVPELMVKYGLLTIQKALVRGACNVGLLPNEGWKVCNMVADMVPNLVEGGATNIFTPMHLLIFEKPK
Excerpt: (§2) Yeast lines previously developed for high level accumulation of squalene and botryococcene were used for evaluating the putative triterpene methyltransferase genes (17,23,24). These lines consist of the TN7 parental strain harboring an insertional mutation in the native yeast squalene synthase gene (ERG9) transformed with expression vectors containing either the full-length Botryococcus squalene synthase (BSS) gene (18) or a fusion of the Botryococcus SSL-1 and SSL-3 genes (functional equivalent of botryococcene synthase) including a sequence encoding for the carboxy-terminal membrane targeting domain of the Botryococcus squalene synthase protein (SSL-1-3m) (17). The various methyltransferase expression vectors were introduced into these two yeast lines using the lithium acetate transformation protocol, followed by selection for complementation of the uracil and leucine auxotrophic growth markers (24). […]
(§3) In brief, 1 ml aliquots of the culture were combined with 1 ml of acetone, mixed vigorously, and incubated at room temperature for 10 min. […] The mixture was then centrifuged briefly at 500 g to separate the phases, and an aliquot of the organic phase (1-3 μl) analyzed by GC-MS with a Varian CP-3800 GC coupled to a Varian Saturn 2200 MS/MS (Varian Medical Systems) using a Supelco SLB-5 ms fused silica capillary column (30 m×0.25 mm×0.25 μm film thickness, Supelco). […]

TMT-2 [3] = molecular target: T2, TMT-2 (Botryococcus braunii, UniProt H2E7T6); test: as above; type: cell-based, Botryococcus braunii race B; set-up: led to the identification of six full-length ORFs; made in house; host or cells: Saccharomyces cerevisiae TN7 (TN-7); conditions: TN7 yeast co-expressing TMT-2 and BSS
T2 sequence (H2E7T6 1-378): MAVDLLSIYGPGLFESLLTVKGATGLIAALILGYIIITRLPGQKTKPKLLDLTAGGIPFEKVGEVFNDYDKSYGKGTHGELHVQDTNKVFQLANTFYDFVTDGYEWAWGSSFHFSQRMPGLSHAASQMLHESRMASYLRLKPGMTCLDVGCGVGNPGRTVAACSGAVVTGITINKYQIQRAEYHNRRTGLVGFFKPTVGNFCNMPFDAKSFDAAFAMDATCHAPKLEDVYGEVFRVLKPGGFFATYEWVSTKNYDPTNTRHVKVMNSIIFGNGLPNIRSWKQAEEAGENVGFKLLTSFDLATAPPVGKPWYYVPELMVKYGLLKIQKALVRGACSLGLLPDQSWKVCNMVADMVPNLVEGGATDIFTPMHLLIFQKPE
Excerpt: as §2, §3

TMT-1 [4] = molecular target: T1, TMT-1; test: In vitro methyltransferase assay, yeast microsomes, 3H-SAM; type: biochemical, Botryococcus braunii race B; set-up: led to the identification of six full-length ORFs; made in house; host or cells: Saccharomyces cerevisiae TN7 (TN-7), microsomal preparation; conditions: TMT-1 microsomes; 2 mM acceptor substrate, 50 μM 3H-SAM, 0.1% DHPC, 37° C., 5 min; mean ± S.E.M., n = 3
Description: as §1, with “analysis. […]” for “analysis.”

TMT-2 [5] = molecular target: T2, TMT-2; test: as above; type: biochemical, Botryococcus braunii race B; set-up: led to the identification of six full-length ORFs; made in house; host or cells: Saccharomyces cerevisiae TN7 (TN-7), microsomal preparation; conditions: TMT-2 microsomes; 2 mM acceptor substrate, 50 μM 3H-SAM, 0.1% DHPC, 37° C., 5 min; mean ± S.E.M., n = 3
Description: as §1, with “analysis. […]” for “analysis.”

TMT-3 [6] = molecular target: T3, TMT-3 (Botryococcus braunii, UniProt H2E7T7); test: as above; type: biochemical, Botryococcus braunii race B; conditions: TMT-3 microsomes; 2 mM acceptor substrate, 50 μM 3H-SAM, 0.01% DHPC, 37° C., 5 min; mean ± S.E.M., n = 3
T3 construct: led to the identification of six full-length ORFs; expressed in transfected cells; host or cells: Saccharomyces cerevisiae TN7 (erg9 insertional mutant) co-expressing B. braunii squalene synthase (BSS) or SSL-1-3m
T3 sequence (H2E7T7 1-379): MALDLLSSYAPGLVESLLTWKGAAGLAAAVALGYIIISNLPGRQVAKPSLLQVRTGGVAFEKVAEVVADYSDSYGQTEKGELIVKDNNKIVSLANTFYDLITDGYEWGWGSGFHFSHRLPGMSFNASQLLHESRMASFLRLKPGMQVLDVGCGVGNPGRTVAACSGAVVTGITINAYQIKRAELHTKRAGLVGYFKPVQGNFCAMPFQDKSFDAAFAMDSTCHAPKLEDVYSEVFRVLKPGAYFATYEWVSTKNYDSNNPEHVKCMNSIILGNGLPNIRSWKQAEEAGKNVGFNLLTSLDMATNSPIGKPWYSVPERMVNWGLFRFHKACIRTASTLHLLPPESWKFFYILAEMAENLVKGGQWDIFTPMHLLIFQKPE
Description: as §1
(§4) To verify the in vivo results with in vitro determinations, the six SMT-like genes were expressed in yeast and microsomal preparations used as the source of the enzymes in assays containing 3H-SAM and either botryococcene or squalene as substrates.

SMT-2 = molecular target: T4, SMT-2 (Botryococcus braunii, UniProt H2E7T9); test: as above; type: biochemical, Botryococcus braunii race B; conditions: SMT-2 microsomes; 2 mM acceptor substrate, 50 μM 3H-SAM, 0.1% DHPC, 37° C., 5 min
T4 construct: led to the identification of six full-length ORFs; made in house; host or cells: Saccharomyces cerevisiae TN7 (TN-7), microsomal preparation
T4 sequence (H2E7T9 1-389): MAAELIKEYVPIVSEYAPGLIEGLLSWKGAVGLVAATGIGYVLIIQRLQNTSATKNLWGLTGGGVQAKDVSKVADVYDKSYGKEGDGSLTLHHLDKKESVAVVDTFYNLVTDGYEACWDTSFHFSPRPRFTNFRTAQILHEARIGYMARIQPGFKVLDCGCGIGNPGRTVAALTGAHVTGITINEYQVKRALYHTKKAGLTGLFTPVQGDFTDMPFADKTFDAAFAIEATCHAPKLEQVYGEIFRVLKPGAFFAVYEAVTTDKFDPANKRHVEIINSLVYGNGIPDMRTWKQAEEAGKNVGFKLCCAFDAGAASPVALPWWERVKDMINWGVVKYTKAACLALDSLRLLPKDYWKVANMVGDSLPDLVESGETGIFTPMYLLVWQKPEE
Description: as §1, §4

SMT-1 = molecular target: T5, SMT-1 (Botryococcus braunii, UniProt H2E7T8); test: as above; type: biochemical, Botryococcus braunii race B; conditions: SMT-1 microsomes; 2 mM acceptor substrate, 50 μM 3H-SAM, 0.1% DHPC, 37° C., 5 min
T5 construct: led to the identification of six full-length ORFs; made in house; host or cells: Saccharomyces cerevisiae TN7 (TN-7), microsomal preparation
T5 sequence (H2E7T8 1-389): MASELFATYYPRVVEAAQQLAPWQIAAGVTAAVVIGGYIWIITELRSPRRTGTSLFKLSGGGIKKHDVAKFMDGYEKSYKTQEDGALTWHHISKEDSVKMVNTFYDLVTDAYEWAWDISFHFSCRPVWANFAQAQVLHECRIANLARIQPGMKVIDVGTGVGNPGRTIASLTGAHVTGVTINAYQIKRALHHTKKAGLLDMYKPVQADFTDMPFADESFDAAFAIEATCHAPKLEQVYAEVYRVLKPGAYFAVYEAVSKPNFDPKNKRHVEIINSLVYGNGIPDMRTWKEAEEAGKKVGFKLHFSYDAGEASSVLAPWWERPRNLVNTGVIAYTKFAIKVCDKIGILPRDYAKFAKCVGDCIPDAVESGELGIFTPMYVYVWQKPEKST
Description: as §1, §4

SMT-3 = molecular target: T6, SMT-3 (Botryococcus braunii, UniProt H2E7U0); test: as above; type: biochemical, Botryococcus braunii race B; conditions: SMT-3 microsomes; 2 mM acceptor substrate, 50 μM 3H-SAM, 0.1% DHPC, 37° C., 5 min
T6 construct: led to the identification of six full-length ORFs; made in house; host or cells: Saccharomyces cerevisiae TN7 (TN-7), microsomal preparation
T6 sequence (H2E7U0 1-392): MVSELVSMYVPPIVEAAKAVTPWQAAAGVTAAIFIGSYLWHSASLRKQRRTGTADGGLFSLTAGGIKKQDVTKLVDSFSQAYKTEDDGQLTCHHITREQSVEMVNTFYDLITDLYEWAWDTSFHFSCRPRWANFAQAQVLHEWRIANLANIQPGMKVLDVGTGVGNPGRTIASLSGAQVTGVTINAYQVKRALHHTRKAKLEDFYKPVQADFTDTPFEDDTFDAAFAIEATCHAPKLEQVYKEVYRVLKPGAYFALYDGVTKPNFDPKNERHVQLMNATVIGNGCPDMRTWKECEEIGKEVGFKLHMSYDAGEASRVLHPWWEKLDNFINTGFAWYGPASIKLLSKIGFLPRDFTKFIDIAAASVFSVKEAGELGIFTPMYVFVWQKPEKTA
Description: as §1, §4

TMT-3 [7] = molecular target: T3, TMT-3; test: In vivo co-expression in TN7 yeast with triterpene synthase, GC-MS of organic extracts; type: cell-based, Botryococcus braunii race B; conditions: TN7 yeast co-expressing TMT-3 and BSS
Excerpt: as §2, §3

## CC(C)=CCC[C@@H](C)[C@H]1CC[C@@]2(C)[C@@H]3CC[C@H]4C(C)(C)[C@@H](O)CC[C@@]45C[C@@]35CC[C@]12C [cycloartenol]
[1]
  Methylation of the sterol acceptor substrate: none of the six B. braunii SMT-like genes methylated

## CC(C)=CCC[C@@H](C)[C@H]1CC[C@@]2(C)C3=C(CC[C@]12C)[C@@]1(C)CC[C@H](O)C(C)(C)[C@@H]1CC3 [lanosterol]
[1]
  Methylation of the sterol acceptor substrate: none of the six B. braunii SMT-like genes methylated

## CC(C)=CCC/C(C)=C/CC/C(C)=C/CC/C=C(\C)CC/C=C(\C)CCC=C(C)C [squalene]
TMT-1 [2]
  Share of total squalenes accumulated as methyl-derivatives: 63%
TMT-2 [3]
  Share of squalenes accumulated as methyl-derivatives: 40%
TMT-1 [4]
  Enzyme activity (methyl groups transferred to acceptor substrate): 513.7 ± 8.6 pmol/h/µg
TMT-2 [5]
  Enzyme activity (methyl groups transferred to acceptor substrate): 862.2 ± 59.9 pmol/h/µg
TMT-3 [6]
  Enzyme activity (methyl groups transferred to acceptor substrate): 35.4 ± 3.0 pmol/h/µg
SMT-2
  Enzyme activity (methyl groups transferred to acceptor substrate): 0 pmol/h/µg
SMT-1
  Enzyme activity (methyl groups transferred to acceptor substrate): 0 pmol/h/µg
SMT-3
  Enzyme activity (methyl groups transferred to acceptor substrate): 0 pmol/h/µg
TMT-3 [7]
  Share of total accumulating squalene converted to its methyl-derivatives: approximately 18%

## CC(C)=CCC[C@@H](C)[C@H]1CC[C@H]2C3=C(CC[C@]12C)[C@@]1(C)CC[C@H](O)C[C@@H]1CC3 [zymosterol]
[1]
  Methylation of the sterol acceptor substrate: none of the six B. braunii SMT-like genes methylated

Source: patent US9487762B1, “Method and system for producing triterpenes” (University of Kentucky Research Foundation, priority 2012, dated 2016)
